From patent publication US12319703B2, “Macrocyclic fused pyrazoles as Mcl-1 inhibitors” (ASCENTAGE PHARMA (SUZHOU) CO., LTD., priority 2019, dated 2025)
Like-named read-outs stand apart in the source and are kept apart here.

Experiments:
[1] = molecular target: T1, Mcl-1 protein (residues 171-323) (Homo sapiens, UniProt Q07820); assay: Inhibition of Mcl-1 by fluorescence polarization (FP) competitive binding assay; conditions: FAM-Bid tracer 2 nM, Mcl-1 20 nM, 30 min
T1 construct: Tag-free Mcl-1 protein (residues 171-323) was used in the FP assay
T1 sequence (Q07820 171-323): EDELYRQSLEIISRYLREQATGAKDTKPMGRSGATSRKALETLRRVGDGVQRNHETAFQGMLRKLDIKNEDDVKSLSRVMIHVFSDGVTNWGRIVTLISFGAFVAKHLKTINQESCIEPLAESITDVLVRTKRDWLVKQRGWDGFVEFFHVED
Experimental: Inhibition of Mcl-1 by Fluorescence Polarization (FP) Assay.
The method used a fluorescein labelled peptide (FAM-Bid) which binds to the Mcl-1 protein leading to an increased anisotropy measured in milli-polarization (mP) values using a plate reader.
A 10-points serial dilution of each compound was prepared in DMSO and 5 μL solution was transferred into flat bottomed, 96-well back plate (final DMSO concentration 5%). 120 μL of Buffer (PBS, 0.01% BGG (Sigma Cat. #SRE0011), 0.01% Triton X-100), containing the Fluorescein labelled peptide (Final concentration 2 nM) and Mcl-1 protein (final concentration 20 nM) was then added. […] 10-points dose response curves were plotted with GraphPad software using Sigmoidal Dose-Response Model and the IC50 values were determined by nonlinear regression fitting of the competition curves.

[2] = tested on: OPM-2 cells; assay: Cell viability assay (OPM-2 cells), CCK-8; type: cell-based; conditions: WST, 5% FBS, read-out: OPM2 (WST, 5% FBS)
Experimental: Cell Viability Assay (OPM-2 Cells)
OPM-2 cells were obtained from Deutsche Sammlung von Mikroorganismen und Zellkulturen GmbH (DSMZ). […]
The effect of representative Compounds of the Disclosure on cell viability was determined using Cell Counting Kit-8 (CCK-8) assay (Shanghai Life iLab Bio Technology) according to the manufacturer's instructions. Each tested compound was serially diluted in culture medium, 100 μL of the compound dilution was added into 96-well plates. 100 μL of an OPM-2 cell suspension (20000 cells/well) in culture medium were seeded into the corresponding well of the plate and the cells were incubated at 37° C. in an atmosphere of 5% CO2 for 24 hours. In the next day, 20 μL of CCK-8 solution was added to each well of the plate and incubated for 4 hours.
The plates were read at 450 nm on the microplate spectrophotometer (SpectraMax plus 384, Molecular devices). The readings were normalized to the vehicle cells, and the IC50 was calculated by nonlinear regression analysis using GraphPad Prism 6 software.

[3] = tested on: NCI-H929 cells; assay: Cell viability assay (NCI-H929 cells), CCK-8; type: cell-based; conditions: WST, 5% FBS
Experimental: Cell Viability Assay (NCI-H929 Cells)
NCI-H929 cells were obtained from American Type Culture Collection (ATCC). Cells were maintained in the recommended culture medium (RPMI 1640) with 10% FBS and 0.05 mM BME at 37° C. and an atmosphere of 5% CO2.
The effect of Compounds on cell viability was determined using Cell Counting Kit-8 (CCK-8) assay according to the manufacturer's instructions. 95 μL of NCI-H929 cell suspension (20000 cells/well) in culture medium were seeded into 96-well plates and cultured 4 hrs. Each tested compound was serially diluted in DMSO, then 5 μL of the compound or DMSO was diluted in 95 μL medium once more. At last, 5 μL of the compound dilution was added to the corresponding well of the cell plate. After the addition of the tested compound, the cells were incubated at 37° C. in an atmosphere of 5% CO2 for 24 hrs. At the end, 10 μL of CCK-8 solution was added to each well of the plate and incubated for 1-4 hours. The plates were read at 450 nm on the microplate reader (BioTek Synergy 1MF). The readings were normalized to the vehicle cells, and the IC50 was calculated by nonlinear regression analysis using GraphPad Prism 6 software.

| Structure (SMILES) | IC50 [1] [nM] | IC50 ([2]; Homo sapiens, OPM-2, 24 h) [nM] | IC50 ([3]; Homo sapiens, NCI-H929, 24 h) [nM] | IC50 ([2]; 24 h) [nM] | IC50 ([3]; 24 h) [nM] |
| --- | --- | --- | --- | --- | --- |
| Cn1c(C(=O)O)c2c3ccc(Cl)c(c31)-c1c(nn3c1CCC3)CSCc1coc(n1)CSc1cc(c3ccccc3c1)OCCC2 [compound 2, (Z)-1^6-chloro-1^1-methyl-2^5,2^6-dihydro-1^1H,2^4H-10-oxa-4,8-dithia-6(4,2)-oxazola-1(7,3)-indola-2(3,2)-pyrrolo[1,2-b]pyrazola-9(3,1)-naphthalenacyclotridecaphane-1^2-carboxylic acid] | 14 | 1140 | 287 |  |  |
| Cn1nc2cc1CSc1cc(c3ccc(F)cc3c1)OCCCc1c(C(=O)O)n(C)c3c(c(Cl)ccc13)-c1c(nn3c1COCC3)CN(S(=O)(=O)C1CC1)C2 [compound 43, (Z)-1^6-chloro-4-(cyclopropylsulfonyl)-9^6-fluoro-1^1,6^1-dimethyl-2^6,2^7-dihydro-1^1H,2^4H,6^1H-10-oxa-8-thia-4-aza-2(3,2)-pyrazolo[5,1-c][1,4]oxazina-1(7,3)-indola-6(3,5)-pyrazola-9(3,1)-naphthalenacyclotridecaphane-1^2-carboxylic acid] | 12 | 451 | 190 |  |  |
| Cn1nc2cc1CSc1cc(c3ccccc3c1)OCCCc1c(C(=O)O)n(C)c3c(c(Cl)ccc13)-c1c(nn3c1OCCC3)CSC2 [compound 22, (Z)-1^6-chloro-1^1,61-dimethyl-2^6,2^7-dihydro-1^1H,2^5H,6^1H-10-oxa-4,8-dithia-2(3,2)-pyrazolo[5,1-b][1,3]oxazina-1(7,3)-indola-6(3,5)-pyrazola-9(3,1)-naphthalenacyclotridecaphane-1^2-carboxylic acid] | 15.9 | 1150 | 225 |  |  |
| Cn1c(C(=O)O)c2c3ccc(Cl)c(c31)-c1c(nn3c1CCC3)CSCc1csc(n1)CSc1cc(c3ccccc3c1)OCCC2 [compound 3, (Z)-1^6-chloro-1^1-methyl-2^5,2^6-dihydro-1^1H,2^4H-10-oxa-4,8-dithia-6(4,2)-thiazola-1(7,3)-indola-2(3,2)-pyrrolo[l,2-b]pyrazola-9(3,1)-naphthalenacyclotridecaphane-1^2-carboxylic acid] | 8.7 | 6580 | 5110 |  |  |
| Cn1nc2cc1CSc1cc(c3ccccc3c1)OCCCc1c(C(=O)O)n(C)c3c(c(Cl)ccc13)-c1c(nn3c1CCC3)CSC2 [compound 1, (Z)-1^6-chloro-1^1,6^1-dimethyl-2^5,2^6-dihydro-1^1H,2^4H,6^1H-10-oxa-4,8-dithia-1(7,3)-indola-2(3,2)-pyrrolo[1,2-b]pyrazola-6(3,5)-pyrazola-9(3,1)-naphthalenacyclotridecaphane-1^2-carboxylic acid] | 15 |  |  | 437 | 123 |
| Cc1c2c(nn1C)CN(S(=O)(=O)C(F)(F)F)Cc1cc(n(C)n1)CSc1cc(c3ccc(F)cc3c1)OCCCc1c(C(=O)O)n(C)c3c-2c(Cl)ccc13 [compound 46, (Z)-1^6-chloro-9^6-fluoro-1^1,2^1,2^5,6^1-tetramethyl-4-((trifluoromethyl)sulfonyl)-1^1H,2^1H,6^1H-10-oxa-8-thia-4-aza-1(7,3)-indola-2(4,3),6(3,5)-dipyrazola-9(3,1)-naphthalenacyclotridecaphane-1^2-carboxylic acid] | 12 | 49 | 61 |  |  |
| Cn1nc2nc1CSc1cc(c3ccccc3c1)OCCCc1c(C(=O)O)n(C)c3c(c(Cl)ccc13)-c1c(nn3c1CCC3)CSC2 [compound 13, (Z)-1^6-chloro-1^1,6^1-dimethyl-2^5,2^6-dihydro-1^1H,2^4H,6^1H-10-oxa-4,8-dithia-1(7,3)-indola-2(3,2)-pyrrolo[1,2-b]pyrazola-6(3,5)-triazola-9(3,1)-naphthalenacyclotridecaphane-1^2-carboxylic acid] | 14.6 | > 10000 | 4300 |  |  |
| Cn1nc2cc1CSc1cc(c3ccccc3c1)OCCCc1c(C(=O)O)n(C)c3c(c(Cl)ccc13)-c1c(nn3c1CCC3)CSC2 (atropisomer, axis not shown) [Cpd. No. 53, (S)-(Z)-1^6-chloro-1^1,6^1-dimethyl-2^5,2^6-dihydro-1^1H,2^4H,6^1H-10-oxa-4,8-dithia-1(7,3)-indola-2(3,2)-pyrrolo[1,2-b]pyrazola-6(3,5)-pyrazola-9(3,1)-naphthalenacyclotridecaphane-1^2-carboxylic acid] |  |  |  | 5720 | 4400 |
| Cc1nc2oc1CSc1cc(c3ccccc3c1)OCCCc1c(C(=O)O)n(C)c3c(c(Cl)ccc13)-c1c(nn3c1CCC3)CSC2 [compound 10, 1^6-chloro-1^1,6^4-dimethyl-2^5,2^6-dihydro-1^1H,2^4H-10-oxa-4,8-dithia-6(2,5)-oxazola-1(7,3)-indola-2(3,2)-pyrrolo[1,2-naphthalenacyclotridecaphane-b]pyrazola-9(3,1)-1^2-carboxylic acid] | 10.5 | 8810 | 1970 |  |  |
| Cn1nc2cc1CSc1cc(c3ccccc3c1)OCCCc1c(C(=O)O)n(C)c3c(c(Cl)ccc13)-c1c(nn3c1COCC3)CSC2 [compound 12, (Z)-1^6-chloro-1^1,6^1-dimethyl-2^6,2^7-dihydro-1^1H,2^4H,6^1H-10-oxa-4,8-dithia-2(3,2)-pyrazolo[5,1-c][1,4]oxazina-1(7,3)-indola-6(3,5)-pyrazola-9(3,1)-naphthalenacyclotridecaphane-1^2-carboxylic acid] | 10.9 | 532 | 81 |  |  |
| Cn1nc2cc1CSc1cc(cc(C(F)(F)F)c1)OCCCc1c(C(=O)O)n(C)c3c(c(Cl)ccc13)-c1c(nn3c1COCC3)CSC2 [Cpd. No. 33, (Z)-1^6-chloro-1^1,6^1-dimethyl-9^5-(trifluoromethyl)-2^6,2^7-dihydro-11H,2^4H,6^1H-10-oxa-4,8-dithia-2(3,2)-pyrazolo[5,1-c][1,4]oxazina-1(7,3)-indola-6(3,5)-pyrazola-9(1,3)-benzenacyclotridecaphane-1^2-carboxylic acid] | 12 | 965 | 361 |  |  |
| Cn1nc2cc1CSc1cc(c3ccc(F)cc3c1)OCCCc1c(C(=O)O)n(C)c3c(c(Cl)ccc13)-c1c(nn3c1CCCCC3)CSC2 [compound 28, (Z)-1^6-chloro-9^6-fluoro-1^1,6^1dimethyl-2^5,2^6,2^7,2^8-tetrahydro-1^1H,2^4H,6^1H-10-oxa-4,8-dithia-2(3,2)-pyrazolo[1,5-a]azepina-1(7,3)-indola-6(3,5)-pyrazola-9(3,1)-naphthalenacyclotridecaphane-1^2-carboxylic acid] | 15.9 | 184 | 55 |  |  |
| Cn1nc2cc1CSc1cc(c3ccccc3c1)OCCCc1c(C(=O)O)n(C)c3c(c(Cl)ccc13)-c1c(nn3c1CCC3)CSC2 (atropisomer, axis not shown) [Cpd. No. 52, (R)-(Z)-1^6-chloro-1^1,6^1-dimethyl-2^5,2^6-dihydro-1^1H,2^4H,6^1H-10-oxa-4,8-dithia-1(7,3)-indola-2(3,2)-pyrrolo[1,2-b]pyrazola-6(3,5)-pyrazola-9(3,1)-naphthalenacyclotridecaphane-1^2-carboxylic acid] |  |  |  | 353 | 63 |
| Cn1c(C(=O)O)c2c3ccc(Cl)c(c31)-c1c(nn3c1CCC3)CSCC1=NC=C(CSc3cc(c4ccccc4c3)OCCC2)S1 [compound 4, 1^6-chloro-1^1methyl-2^5,2^6-dihydro-1^1H,2^4H-10-oxa-4,8-dithia-6(2,5)-thiazola-1(7,3)-indola-2(3,2)-pyrrolo[1,2-b]pyrazola-9(3,1)-naphthalenacyclotridecaphane-1^2-carboxylic acid] | 19.1 | 5300 |  |  |  |
